The values that follow come from ChEMBL document CHEMBL6114997, “New curcumin derivative induces ferroptosis in MCF-7 cells through activating SLC7A11/GPX4 axis” (Bioorg Med Chem, 2025).

The subject of test [1] is HeLa. Nature of the test: Antiproliferative activity against human HeLa cells assessed as inhibition of cell growth by MTT assay. In kind it is functional, cell-based. For orientation: Tetrazolium assays rely on reduction of a dye to a coloured formazan, in cell work by metabolically active cells.
Test [2] deals with MCF7. Nature of the test: Induction of intracellular ROS level in human MCF7 cells incubated for 24 hrs by DCFH-DA staining based fluorescence microscopic analysis. In kind it is functional, cell-based. The following applies: dose 1.5-3 µM.
The subject of test [3] is MCF7. Nature of the test: Induction of ferroptosis in human MCF7 cells assessed as increase in intracellular ferrous ion level by measuring increase in fluorescence at 1.5 to 3.0 micromol/L incubated for 24 hrs by ferroOrange probe based fluorescence microscopic analysis. In kind it is functional, cell-based. The note with it: dose 1.5-3 µmol/L.
Test [4] relates to MCF7. Nature of the test: Induction of intracellular ROS level in human MCF7 cells at 1.5 uM incubated for 24 hrs by DCFH-DA staining based fluorescence microscopic analysis (reference value: 4.66%). In kind it is functional.
Test [5] concerns HepG2. Nature of the test: Antiproliferative activity against human HepG2 cells assessed as inhibition of cell growth by MTT assay. In kind it is functional, cell-based.
The subject of test [6] is MCF7. Nature of the test: Induction of ferroptosis in human MCF7 cells assessed as decrease in SLC7A11 to GAPDH ratio at 1.5 to 3.0 micromol/L incubated for 24 hrs by Western blot analysis. The note with it: dose 1.5-3 µmol/L. It counts as functional, cell-based. A general note: In western blotting, separated proteins are transferred to a membrane and probed.
The subject of test [7] is MCF7. Nature of the test: Induction of ferroptosis in human MCF7 cells assessed as increase in MDA level at 3.0 micromol/L measured after 24 hrs by absorbance based analysis (reference value: 0.42 micromol/L). It counts as functional. The note with it: dose 3 µmol/L.
Test [8] can be described thus: Potency index, ratio of cisplatin IC50 to test compound IC50 for antiproliferative activity against human A549 cells assessed as inhibition of cell growth by MTT assay. It counts as functional.
Test [9] is described as follows: Potency index, ratio of cisplatin IC50 to test compound IC50 for antiproliferative activity against human HepG2 cells assessed as inhibition of cell growth by MTT assay. It counts as functional.
Test [10] has as its system MCF7. Nature of the test: Induction of ferroptosis in human MCF7 cells assessed as decrease in GPX4 to beta-actin ratio at 1.5 to 3.0 micromol/L incubated for 24 hrs by Western blot analysis. It counts as functional, cell-based. The following applies: dose 1.5-3 µmol/L.
Test [11] is described as follows: Potency index, ratio of cisplatin IC50 to test compound IC50 for antiproliferative activity against human MCF7 cells assessed as inhibition of cell growth by MTT assay. In kind it is functional.
Test [12] can be described thus: Potency index, ratio of cisplatin IC50 to test compound IC50 for antiproliferative activity against human HeLa cells assessed as inhibition of cell growth by MTT assay. In kind it is functional.
Test [13] concerns MCF7. Nature of the test: Induction of ferroptosis in human MCF7 cells assessed as decrease in GPX4 activity at 1.5 to 3.0 micromol/L by absorbance based analysis (reference value: 5.90 mU/mg). It counts as functional. The following applies: dose 1.5-3 µmol/L.
The subject of test [14] is MCF7. Nature of the test: Antiproliferative activity against human MCF7 cells assessed as inhibition of cell growth by MTT assay. It counts as functional, cell-based.
For test [15], the system named is A549. Nature of the test: Antiproliferative activity against human A549 cells assessed as inhibition of cell growth by MTT assay. In kind it is functional, cell-based.
Test [16] relates to MCF7. Nature of the test: Induction of ferroptosis in human MCF7 cells assessed as increase in MDA level at 1.5 micromol/L measured after 24 hrs by absorbance based analysis (reference value: 0.42 micromol/L). The note with it: dose 1.5 µmol/L. In kind it is functional.
Test [17] in a line: Potency index, ratio of cisplatin IC50 to test compound IC50 for antiproliferative activity against human HT-29 cells assessed as inhibition of cell growth by MTT assay. It counts as functional.
Test [18] has as its system MCF7. Nature of the test: Induction of ferroptosis in human MCF7 cells assessed as change in GPX4 expression incubated for 24 hrs by Western blot analysis. It counts as functional, cell-based. The note with it: dose 1.5-3 µmol/L.
Test [19] deals with HT-29. Nature of the test: Antiproliferative activity against human HT-29 cells assessed as inhibition of cell growth by MTT assay. In kind it is functional, cell-based.
The test system of test [20] is MCF7. Nature of the test: Induction of intracellular ROS level in human MCF7 cells at 3.0 uM incubated for 24 hrs by DCFH-DA staining based fluorescence microscopic analysis (reference value: 4.66%). In kind it is functional.
The nature of test [21]: Antioxidant activity assessed as DPPH radical scavenging activity incubated for 30 mins in dark by absorbance based analysis. It counts as functional. Background: DPPH is a stable violet radical that fades when it is reduced.

The source made the active and inactive calls. The rule behind the calls is not given here. Where only a bound is given, the exact number is not on record here.

The term IC50 denotes the concentration that inhibits the measured activity by half. On to `COc1cc(/C=C/C(=O)C(=Cc2cccs2)C(=O)/C=C/c2ccc(OCCO[N+](=O)[O-])c(OC)c2)ccc1OCCO[N+](=O)[O-]`, for which the IC50 in test [1] came out at 6780 nM; in [5], 1210 nM; in test [14], 1390 nM; in test [15], 1030 nM; in test [19], 1450 nM. Also, the Activity result in test [2] is “Dose-dependent-effect”; in test [4], 12.5%; in test [7], 1.25 µmol/L; in [13] it was 3.52 mU/mg; in test [16], 0.84 µmol/L; in [18], “Dose-dependent-effect”. The Activity in test [20] amounted to 60.7%. For the same compound, the outcome in test [3], in [6] and in [10] was Active. The “Ratio IC50” value in test [8], in test [9], in test [11], in test [12] and in [17] was “>=2” in each case.

For `COc1cc(/C=C/C(=O)C(=Cc2cccs2)C(=O)/C=C/c2ccc(OCCCCO[N+](=O)[O-])c(OC)c2)ccc1OCCCCO[N+](=O)[O-]`, the IC50 in test [1] was more than 50000 nM; in test [5] it was 2220 nM; in [14], 18400 nM; in [15], 7240 nM; in test [19], 10200 nM. The Activity result in test [21] is reported as “Weak_effect; Compound Showed Weak Effect Compared With Vitamin C”.

As for `COc1cc(/C=C/C(=O)C(=Cc2ccco2)C(=O)/C=C/c2ccc(OCCCO[N+](=O)[O-])c(OC)c2)ccc1OCCCO[N+](=O)[O-]`, the IC50 in test [1] amounted to 7600 nM; in test [5], 1740 nM; in test [14], 3660 nM; in test [15], 2060 nM; in test [19], 2500 nM. Besides, the Activity result in [21] was “Weak_effect; Compound Showed Weak Effect Compared With Vitamin C”.

As for `COc1cc(/C=C/C(=O)C(=Cc2ccco2)C(=O)/C=C/c2ccc(OCCO[N+](=O)[O-])c(OC)c2)ccc1OCCO[N+](=O)[O-]`, the IC50 in test [1] was 14200 nM; in test [5] it was 1610 nM; in test [14] it was 2320 nM; in [15], 800 nM; in test [19], 1280 nM. The Activity result in test [21] was “Weak_effect; Compound Showed Weak Effect Compared With Vitamin C”.
